Holding throughout (format): biochemical
Assay [1] has as its target T1, Recombinant Human Anaplastic Lymphoma Kinase (Homo sapiens, UniProt Q9UM73).
T1 construct: purchased Invitrogen, Carlsbad, Calif
Nature of the assay: ALK HTRF kinase assay. Conditions: Table D1; 90 μM ATP. The method in brief:
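Biotinylated peptide substrate, recombinant human ALK; detection via europium-chelate antibody to phosphotyrosine paired with streptavidin-APC. Potency expressed as IC50 from four-parameter curve fitting.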

In assay [2] the target is T2, human JAK1 (a.a. 837-1142) (Homo sapiens, UniProt P23458).
T2 construct: human JAK1 (a.a. 837-1142); His tag (N); made in house; host or cells: insect cells (baculovirus)
T2 sequence (P23458 849-1154): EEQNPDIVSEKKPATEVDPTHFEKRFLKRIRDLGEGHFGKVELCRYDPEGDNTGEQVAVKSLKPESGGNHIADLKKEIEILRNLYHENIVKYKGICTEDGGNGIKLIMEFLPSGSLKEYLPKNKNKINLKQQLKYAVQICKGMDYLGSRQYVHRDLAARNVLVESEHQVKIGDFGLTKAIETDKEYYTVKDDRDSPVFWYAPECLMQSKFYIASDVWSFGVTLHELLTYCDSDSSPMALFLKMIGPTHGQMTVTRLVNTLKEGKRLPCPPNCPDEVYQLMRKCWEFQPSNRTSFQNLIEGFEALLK
As to the kind of experiment: In vitro JAK kinase assay (HTRF, phosphorylation of a biotinylated peptide), JAK1. Conditions: Table D1; read-out: JAK1 IC50. The method in brief: (§1)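 Kinase activity was measured as phosphorylation of a biotinylated peptide, with ATP at 90 μM for JAK1, 30 μM for JAK2 and 3 μM for JAK3. Reactions ran 1 hr at room temperature, were stopped with EDTA plus SA-APC and Eu-Py20, and were read by HTRF after 40 minutes of antibody binding.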
Background: In TR-FRET formats the signal depends on donor and acceptor labels being close together.

The target of assay [3] is T3, human JAK3 (a.a. 781-1124) (Homo sapiens, UniProt P52333).
T3 construct: JAK3 (a.a. 781-1124); His tag (N); made in house; host or cells: insect cells (baculovirus)
T3 sequence (P52333 781-1124): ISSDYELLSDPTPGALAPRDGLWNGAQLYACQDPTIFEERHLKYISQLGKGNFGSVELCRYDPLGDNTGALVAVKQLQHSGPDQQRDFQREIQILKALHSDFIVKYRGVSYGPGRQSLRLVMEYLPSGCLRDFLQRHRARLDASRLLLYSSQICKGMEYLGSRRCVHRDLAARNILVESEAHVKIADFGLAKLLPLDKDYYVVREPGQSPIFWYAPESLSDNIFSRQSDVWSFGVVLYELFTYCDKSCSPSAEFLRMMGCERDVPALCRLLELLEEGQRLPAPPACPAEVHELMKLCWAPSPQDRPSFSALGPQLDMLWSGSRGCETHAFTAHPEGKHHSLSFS
As to the kind of experiment: In vitro JAK kinase assay (HTRF, phosphorylation of a biotinylated peptide), JAK3. The conditions noted are these: Table D1. The method in brief:
as §1

For a further assay, the target named is TYK2 (Homo sapiens, UniProt P29597). As to the kind of experiment: TYK2 kinase inhibition (Table A1). The conditions noted are these: Table D1.
Chain of TYK2 (P29597 whole entry): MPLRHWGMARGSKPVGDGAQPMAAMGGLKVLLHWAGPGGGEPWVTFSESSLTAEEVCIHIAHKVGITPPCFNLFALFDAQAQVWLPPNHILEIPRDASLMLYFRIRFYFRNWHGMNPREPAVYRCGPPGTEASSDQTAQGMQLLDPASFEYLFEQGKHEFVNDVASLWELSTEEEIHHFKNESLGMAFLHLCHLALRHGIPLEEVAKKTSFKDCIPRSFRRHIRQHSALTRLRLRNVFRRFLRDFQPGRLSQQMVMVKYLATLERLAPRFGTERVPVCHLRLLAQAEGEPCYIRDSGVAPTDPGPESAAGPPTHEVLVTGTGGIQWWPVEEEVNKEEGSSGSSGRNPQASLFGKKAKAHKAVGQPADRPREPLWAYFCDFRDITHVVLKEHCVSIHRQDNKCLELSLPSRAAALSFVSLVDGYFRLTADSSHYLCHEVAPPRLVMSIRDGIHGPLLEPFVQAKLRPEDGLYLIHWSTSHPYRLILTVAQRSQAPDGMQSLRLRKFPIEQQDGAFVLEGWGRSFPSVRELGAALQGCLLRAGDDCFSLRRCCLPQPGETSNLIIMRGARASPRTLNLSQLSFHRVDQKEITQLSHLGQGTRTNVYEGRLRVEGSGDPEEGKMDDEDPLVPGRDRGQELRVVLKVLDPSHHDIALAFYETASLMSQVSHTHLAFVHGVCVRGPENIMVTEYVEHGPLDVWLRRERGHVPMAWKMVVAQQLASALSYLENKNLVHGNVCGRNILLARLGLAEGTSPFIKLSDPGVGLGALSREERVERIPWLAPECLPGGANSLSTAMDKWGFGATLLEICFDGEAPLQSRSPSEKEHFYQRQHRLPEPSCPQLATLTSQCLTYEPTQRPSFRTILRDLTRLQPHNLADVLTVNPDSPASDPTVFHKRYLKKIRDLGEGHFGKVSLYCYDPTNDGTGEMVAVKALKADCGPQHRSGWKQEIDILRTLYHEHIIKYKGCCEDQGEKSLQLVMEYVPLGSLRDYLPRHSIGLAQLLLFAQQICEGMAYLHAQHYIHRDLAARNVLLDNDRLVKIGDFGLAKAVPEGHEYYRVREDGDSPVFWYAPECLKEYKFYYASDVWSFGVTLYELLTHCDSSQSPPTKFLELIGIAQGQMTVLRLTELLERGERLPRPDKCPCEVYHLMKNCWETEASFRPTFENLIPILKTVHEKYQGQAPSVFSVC
In assay [4] the target is T4, human JAK2 (a.a. 828-1132) (Homo sapiens, UniProt O60674).
T4 construct: JAK2 (a.a. 828-1132); His tag (N); made in house; host or cells: insect cells (baculovirus)
T4 sequence (O60674 828-1132): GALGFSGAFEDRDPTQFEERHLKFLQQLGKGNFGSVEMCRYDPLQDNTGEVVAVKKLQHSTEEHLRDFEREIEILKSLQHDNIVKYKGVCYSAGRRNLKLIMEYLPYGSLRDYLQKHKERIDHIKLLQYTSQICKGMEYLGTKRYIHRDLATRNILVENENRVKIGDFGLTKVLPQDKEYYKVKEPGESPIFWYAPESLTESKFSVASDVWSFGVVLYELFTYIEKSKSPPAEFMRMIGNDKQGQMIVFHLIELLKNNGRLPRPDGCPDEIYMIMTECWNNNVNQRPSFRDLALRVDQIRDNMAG
As to the kind of experiment: In vitro JAK kinase assay (HTRF, phosphorylation of a biotinylated peptide), JAK2. The conditions noted are these: Table D1. Summed up: as §1

Where a name gives a salt, the structure may show the parent alone. A value given as a limit tells only on which side of the number the result lay.

T1 sequence (Q9UM73 19-1620): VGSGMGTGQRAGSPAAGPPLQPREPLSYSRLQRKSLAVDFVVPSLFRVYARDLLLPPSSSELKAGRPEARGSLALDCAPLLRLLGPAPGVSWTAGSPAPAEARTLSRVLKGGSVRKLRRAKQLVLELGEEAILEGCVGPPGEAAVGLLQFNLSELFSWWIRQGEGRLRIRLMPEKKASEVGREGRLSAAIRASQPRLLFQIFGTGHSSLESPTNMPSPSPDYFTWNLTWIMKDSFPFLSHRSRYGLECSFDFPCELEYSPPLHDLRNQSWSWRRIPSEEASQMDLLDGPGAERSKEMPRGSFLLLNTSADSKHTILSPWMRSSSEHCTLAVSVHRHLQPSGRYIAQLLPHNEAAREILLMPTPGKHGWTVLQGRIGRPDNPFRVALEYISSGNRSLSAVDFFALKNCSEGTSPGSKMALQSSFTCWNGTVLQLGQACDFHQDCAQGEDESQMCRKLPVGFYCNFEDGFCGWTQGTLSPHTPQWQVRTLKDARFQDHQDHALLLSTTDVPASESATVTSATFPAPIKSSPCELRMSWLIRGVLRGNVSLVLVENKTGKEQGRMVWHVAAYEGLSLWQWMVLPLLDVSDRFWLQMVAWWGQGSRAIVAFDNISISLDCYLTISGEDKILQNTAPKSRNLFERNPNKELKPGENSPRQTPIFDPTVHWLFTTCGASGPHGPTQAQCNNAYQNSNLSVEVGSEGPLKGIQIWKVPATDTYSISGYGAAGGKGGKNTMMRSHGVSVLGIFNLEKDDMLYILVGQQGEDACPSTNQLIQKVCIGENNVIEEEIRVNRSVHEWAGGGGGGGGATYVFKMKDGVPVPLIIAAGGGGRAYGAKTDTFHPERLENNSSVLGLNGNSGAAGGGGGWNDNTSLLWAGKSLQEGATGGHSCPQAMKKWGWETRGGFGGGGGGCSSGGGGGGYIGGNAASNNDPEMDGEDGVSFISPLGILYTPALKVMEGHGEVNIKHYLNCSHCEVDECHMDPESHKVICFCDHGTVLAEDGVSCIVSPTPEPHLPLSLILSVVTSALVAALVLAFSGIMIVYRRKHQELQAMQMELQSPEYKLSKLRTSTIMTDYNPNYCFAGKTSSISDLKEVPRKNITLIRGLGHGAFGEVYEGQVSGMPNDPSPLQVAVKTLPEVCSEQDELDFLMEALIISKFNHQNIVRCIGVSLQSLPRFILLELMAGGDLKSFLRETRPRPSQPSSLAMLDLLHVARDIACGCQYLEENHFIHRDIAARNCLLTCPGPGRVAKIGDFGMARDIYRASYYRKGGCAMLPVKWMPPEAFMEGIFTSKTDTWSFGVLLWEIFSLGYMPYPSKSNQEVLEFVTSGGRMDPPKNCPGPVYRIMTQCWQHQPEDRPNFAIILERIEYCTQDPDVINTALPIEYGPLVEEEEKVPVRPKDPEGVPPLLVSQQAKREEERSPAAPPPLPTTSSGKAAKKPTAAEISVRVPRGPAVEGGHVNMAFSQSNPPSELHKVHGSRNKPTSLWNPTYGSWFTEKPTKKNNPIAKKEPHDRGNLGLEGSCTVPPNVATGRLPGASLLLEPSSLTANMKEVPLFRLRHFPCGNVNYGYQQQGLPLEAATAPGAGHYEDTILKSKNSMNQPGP

For orientation: IC50 means the concentration that gives 50% inhibition. In the case of `NC(=O)N1CCN(c2cc(-c3cc4cc(c3)Nc3ncc(Cl)c(n3)Nc3cccc(c3)OCC4)ccn2)CC1` [Example D39, 4-{4-[6-Chloro-14-oxa-2,4,8,23-tetraazatetracyclo[15.3.1.1(3,7).1(9,13)]tricosa-1(21),3(23),4,6,9(22),10,12,17,19-nonaen-19-yl]pyridin-2-yl}piperazine-1-carboxamide bis(trifluoroacetate)], the IC50 in assay [1] amounted to 91 nM; in assay [2], 0.5 nM; in assay [3], 6.4 nM; on TYK2 it was 1.8 nM; in assay [4], 0.5 nM.
`NC(=O)N1CCN(c2ccc(-c3cc4cc(c3)Nc3ncc(Cl)c(n3)Nc3cccc(c3)OCC4)cn2)CC1` [Example D40, 4-{5-[6-Chloro-14-oxa-2,4,8,23-tetraazatetracyclo[15.3.1.1(3,7).1(9,13)]tricosa-1(21),3(23),4,6,9(22),10,12,17,19-nonaen-19-yl]pyridin-2-yl}piperazine-1-carboxamide bis(trifluoroacetate)]: the IC50 in assay [1] was 182 nM; in assay [2], 0.9 nM; in assay [3], 7.2 nM; against TYK2 it was 2.1 nM; in assay [4], 0.7 nM.
As to `CC(C)(C)NC(=O)N1CCN(c2cc(-c3cc4cc(c3)Nc3ncc(Cl)c(n3)Nc3cccc(c3)OCC4)ccn2)CC1` [Example D41, N-(tert-Butyl)-4-{4-[6-chloro-14-oxa-2,4,8,23-tetraazatetracyclo[15.3.1.1(3,7).1(9,13)]tricosa-1(21),3(23),4,6,9(22),10,12,17,19-nonaen-19-yl]pyridin-2-yl}piperazine-1-carboxamide bis(trifluoroacetate)], the IC50 in assay [1] was 280 nM; in assay [2], 3.1 nM; in assay [3] it was 17 nM; on TYK2, 6.2 nM; in assay [4] it was 0.4 nM.
Consider `O=C(Nc1ccccc1)N1CCN(c2ccc(-c3cc4cc(c3)Nc3ncc(Cl)c(n3)Nc3cccc(c3)OCC4)cn2)CC1` [Example D42, 4-{5-[6-Chloro-14-oxa-2,4,8,23-tetraazatetracyclo[15.3.1.1(3,7).1(9,13)]tricosa-1(21),3(23),4,6,9(22),10,12,17,19-nonaen-19-yl]pyridin-2-yl}-N-phenylpiperazine-1-carboxamide bis(trifluoroacetate)], for which the IC50 in assay [1] is 730 nM; in assay [2] it was 2.2 nM; in assay [3], 20 nM; against TYK2 it was 4 nM; in assay [4] it was 2.1 nM.
On the same counts, the results for `COC(=O)c1cc2cc(c1)OCCSc1cccc(c1)Nc1nc(ncc1Cl)N2` [Example D43, Methyl 6-chloro-17-oxa-14-thia-2,4,8,24-tetraazatetracyclo[16.3.1.1(3,7).1(9,13)]tetracosa-1(22),3(24),4,6,9(23),10,12,18,20-nonaene-20-carboxylate trifluoroacetate] are 390 nM, 2.9 nM, 66 nM, 37 nM and 5.3 nM.
On the same counts, the results for `O=C(Nc1ccccc1)N1CCN(c2cc(-c3cc4cc(c3)Nc3ncc(Cl)c(n3)Nc3cccc(c3)OCC4)ccn2)CC1` [Example D44, 4-{4-[6-Chloro-14-oxa-2,4,8,23-tetraazatetracyclo[15.3.1.1(3,7).1(9,13)]tricosa-1(21),3(23),4,6,9(22),10,12,17,19-nonaen-19-yl]pyridin-2-yl}-N-phenylpiperazine-1-carboxamide bis(trifluoroacetate)] are 480 nM, 2.6 nM, 18 nM, 15 nM and 1.5 nM.
For `O=C(NCc1ccccc1)N1CCN(c2cc(-c3cc4cc(c3)Nc3ncc(Cl)c(n3)Nc3cccc(c3)OCC4)ccn2)CC1` [Example D45, N-Benzyl-4-{4-[6-chloro-14-oxa-2,4,8,23-tetraazatetracyclo[15.3.1.1(3,7).1(9,13)]tricosa-1(21),3(23),4,6,9(22),10,12,17,19-nonaen-19-yl]pyridin-2-yl}piperazine-1-carboxamide bis(trifluoroacetate)], the IC50 in assay [1] was 340 nM; in assay [2] it was 8.1 nM; in assay [3] it was 36 nM; against TYK2, 13 nM; in assay [4] it was 3 nM.
On the same counts, the results for `O=C(NC1CCCC1)N1CCN(c2cc(-c3cc4cc(c3)Nc3ncc(Cl)c(n3)Nc3cccc(c3)OCC4)ccn2)CC1` [Example D46, 4-{4-[6-Chloro-14-oxa-2,4,8,23-tetraazatetracyclo[15.3.1.1(3,7).1(9,13)]tricosa-1(21),3(23),4,6,9(22),10,12,17,19-nonaen-19-yl]pyridin-2-yl}-N-cyclopentylpiperazine-1-carboxamide bis(trifluoroacetate)] are 390 nM, 4.7 nM, 21 nM, 8.2 nM and 0.9 nM.
Take `O=C(NCc1ccccc1)N1CCN(c2ccc(-c3cc4cc(c3)Nc3ncc(Cl)c(n3)Nc3cccc(c3)OCC4)cn2)CC1` [Example D48, bis(trifluoroacetate)]: the IC50 in assay [1] is above 1000 nM; in assay [2], 4.9 nM; in assay [3], 27 nM; against TYK2 it was 8.3 nM; in assay [4], 2.1 nM.
In the case of `O=C(Nc1ccccc1)c1cc2cc(c1)OCCSc1cccc(c1)Nc1nc(ncc1Cl)N2` [Example D50, 6-Chloro-N-phenyl-17-oxa-14-thia-2,4,8,24-tetraazatetracyclo[16.3.1.1(3,7).1(9,13)]tetracosa-1(22),3(24),4,6,9(23),10,12,18,20-nonaene-20-carboxamide trifluoroacetate], the IC50 amounted to 1500 nM in assay [1]; 7.3 nM in assay [2]; 55 nM in assay [3]; 16 nM against TYK2; 4.1 nM in assay [4].
Consider `O=C(NCc1ccccc1)c1cc2cc(c1)OCCSc1cccc(c1)Nc1nc(ncc1Cl)N2` [Example D51, N-Benzyl-6-chloro-17-oxa-14-thia-2,4,8,24-tetraazatetracyclo[16.3.1.1(3,7).1(9,13)]tetracosa-1(22),3(24),4,6,9(23),10,12,18,20-nonaene-20-carboxamide trifluoroacetate], for which the IC50 in assay [1] is 910 nM; in assay [2] it was 1.8 nM; in assay [3], 14 nM; against TYK2, 4.5 nM; in assay [4], 1.2 nM.
Turning to `O=C(c1cc2cc(c1)OCCSc1cccc(c1)Nc1nc(ncc1Cl)N2)N1CCOCC1` [Example D52, trifluoroacetate], the IC50 in assay [1] came out at 420 nM; in assay [2], 1.5 nM; in assay [3] it was 13 nM; against TYK2, 4.4 nM; in assay [4], 1.2 nM.
Consider `O=C(c1cc2cc(c1)OCCSc1cccc(c1)Nc1nc(ncc1Cl)N2)N1CCN(c2ccccc2)CC1` [Example D53, 6-Chloro-20-[(4-phenylpiperazin-1-yl)carbonyl]-17-oxa-14-thia-2,4,8,24-tetraazatetracyclo[16.3.1.1(3,7).1(9,13)]tetracosa-1(22),3(24),4,6,9(23),10,12,18,20-nonaene bis(trifluoroacetate)], for which the IC50 in assay [1] came out at 1150 nM; in assay [2], 27 nM; in assay [3] it was 273 nM; against TYK2 it was 28 nM; in assay [4], 34 nM.
For the compound `O=C(Nc1nccs1)c1cc2cc(c1)OCCSc1cccc(c1)Nc1nc(ncc1Cl)N2` [Example D54, 6-Chloro-N-1,3-thiazol-2-yl-17-oxa-14-thia-2,4,8,24-tetraazatetracyclo[16.3.1.1(3,7).1(9,13)]tetracosa-1(22),3(24),4,6,9(23),10,12,18,20-nonaene-20-carboxamide trifluoroacetate], the IC50 was 1220 nM in assay [1]; 18 nM in assay [2]; 132 nM in assay [3]; 27 nM on TYK2; 15 nM in assay [4].
Taken in the same sequence, the figures for `Cn1c(NC(=O)c2cc3cc(c2)OCCSc2cccc(c2)Nc2nc(ncc2Cl)N3)nc2ccccc21` [Example D55, 6-Chloro-N-(1-methyl-1H-benzimidazol-2-yl)-17-oxa-14-thia-2,4,8,24-tetraazatetracyclo[16.3.1.1(3,7).1(9,13)]tetracosa-1(22),3(24),4,6,9(23),10,12,18,20-nonaene-20-carboxamide bis(trifluoroacetate)] were above 10000 nM, 56 nM, 129 nM, 88 nM and 40 nM.
In the case of `O=C(Nc1ccc2[nH]ccc2c1)c1cc2cc(c1)OCCSc1cccc(c1)Nc1nc(ncc1Cl)N2` [Example D56, 6-Chloro-N-1H-indol-5-yl-17-oxa-14-thia-2,4,8,24-tetraazatetracyclo[16.3.1.1(3,7).1(9,13)]tetracosa-1(22),3(24),4,6,9(23),10,12,18,20-nonaene-20-carboxamide trifluoroacetate], the IC50 came out at 1940 nM in assay [1]; 10 nM in assay [2]; 42 nM in assay [3]; 14 nM against TYK2; 4.8 nM in assay [4].

Values taken from patent publication US8871753B2, “Macrocyclic compounds and their use as kinase inhibitors” (Incyte Corporation, priority 2008, dated 2014).
